Reference: patent US6541519B2, “Methods and compositions for treating lipoxygenase-mediated disease states” (Coastside Bio Resources, priority 2000, dated 2003)
In brackets after ≈: the same amount, converted by molar mass.

Key:
H1299 cells = test: MTT cytotoxicity assay, H1299; assay type: cell-based; conditions: Homo sapiens, NCI-H1299
Protocol: (§1) The relative cytotoxic activity of 12-MTA against human tumor cells was measured by means of a MTT assay. Human cell lines, including H1299, PC3, K562, A549, DU145, and HL60 were used.

HL60 cells = test: MTT cytotoxicity assay, HL60; assay type: cell-based; conditions: Homo sapiens, HL-60
Protocol: as §1

A549 cells = test: MTT cytotoxicity assay, A549; assay type: cell-based; conditions: Homo sapiens
Protocol: as §1

PC3 cells [1] = test: MTT cytotoxicity assay, PC3; assay type: cell-based; conditions: Homo sapiens, PC-3
Protocol: as §1

DU145 cells = test: MTT cytotoxicity assay, DU145; assay type: cell-based; conditions: Homo sapiens, DU-145
Protocol: as §1

K562 cells = test: MTT cytotoxicity assay, K562; assay type: cell-based; conditions: Homo sapiens
Protocol: as §1

[2] = test system: PC3 human prostate cancer cells; test: Morphological changes by scanning electron microscopy; assay type: cell-based; conditions: 24.2 μg/ml in 0.1% DMSO, harvested 30', 1, 2, 4, 24 hours
Protocol: PC3 cells (5×10^5) were plated in 35 mm dishes. After 24 hours, cells were treated with 24.2 μg/ml of 12-MTA in 0.1% DMSO. The cells were harvested at 30′, 1, 2, 4 and 24 hours. Harvested cells were fixed with 2% paraformaldehyde plus 3% glutformaldehyde in 0.1% sodium cacodylate buffer, pH 7.3. Morphological changes were measured by scanning electron microscopy (SEM).

PC3 cells [3] = test: DNA fragmentation analysis (propidium iodide staining and FACS); assay type: cell-based, human; conditions: 18.15 μg/ml
Protocol: To measure apoptosis directly, PC3 cells were treated with various concentrations of 12-MTA. Cell death by apoptosis was quantified by propidium iodide staining and FACS analysis. This technique measures cells with fragmented DNA, which appear as a population with hypodiploid DNA content (FIG. 2). 12-MTA induced concentration-dependent DNA fragmentation in PC3 cells.

caspase 3 in PC3 cells = test: Caspase 3 activation and PARP cleavage; assay type: cell-based, human; conditions: 24.2 μg/ml, 24 and 48 hours
Protocol: Caspases are a family of aspartate-specific cysteine proteases that are required for apoptosis. The most familiar substrate of caspase is PARP, which is involved with regulation of chromatin structure during differentiation and DNA repair. The native PARP protein (Mr, 116,000) is cleaved by caspase 3 or caspase 7 to yield lower molecular weight fragments. To confirm that the induction of apoptosis by 12-MTA involves activation of caspases, we treated PC3 cells with 24.2 μg/ml of 12-MTA and measured PARP cleavage and caspase 3 activation at 24 and 48 hours.

5-lipoxygenase [4] = biological target: T1, 5-lipoxygenase (Rattus norvegicus, UniProt P12527); test: Inhibition of 5-lipoxygenase activity (5-HETE and LTB4 production, LC/MS/MS); assay type: cell-based; conditions: RBL-1 cells, 5 minutes at 37° C., then A23187 and arachidonic acid
T1 construct: endogenous in cells; host or cells: RBL-1 (rat leukemia) cells
T1 sequence (P12527 1-673): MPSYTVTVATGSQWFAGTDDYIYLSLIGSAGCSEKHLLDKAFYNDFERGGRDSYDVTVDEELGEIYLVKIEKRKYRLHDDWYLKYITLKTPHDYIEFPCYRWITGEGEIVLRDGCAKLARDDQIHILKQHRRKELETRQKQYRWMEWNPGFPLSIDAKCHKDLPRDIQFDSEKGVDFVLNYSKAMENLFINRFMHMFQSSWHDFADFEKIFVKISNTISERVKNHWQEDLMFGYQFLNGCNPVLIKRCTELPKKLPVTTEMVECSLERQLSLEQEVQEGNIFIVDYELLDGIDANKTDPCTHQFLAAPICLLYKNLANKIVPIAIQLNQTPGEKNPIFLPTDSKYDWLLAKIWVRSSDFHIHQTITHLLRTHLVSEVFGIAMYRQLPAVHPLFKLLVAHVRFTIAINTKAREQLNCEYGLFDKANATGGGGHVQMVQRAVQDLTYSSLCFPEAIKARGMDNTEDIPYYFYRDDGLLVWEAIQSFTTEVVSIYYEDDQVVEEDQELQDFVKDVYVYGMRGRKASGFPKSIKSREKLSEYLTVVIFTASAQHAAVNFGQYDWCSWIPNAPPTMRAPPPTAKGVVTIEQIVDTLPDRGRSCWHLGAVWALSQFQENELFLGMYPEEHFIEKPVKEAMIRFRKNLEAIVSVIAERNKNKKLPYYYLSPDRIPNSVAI
Protocol: (§2) 12-MTA in rat leukemia (RBL-1) cells were examined. Cells were treated with 12-MTA (5 to 100 μg/ml) for 5 minutes at 37° C. followed by addition of A23187 (1 mM) and arachidonic acid (125 μM). Then the eicosanoids were extracted with hexane:ethyl acetate and analyzed by Multiple Reaction Monitoring in a tandem mass spectrometer (LC/MS/MS). Among seven eicosanoid metabolites, including PGE2, LTB4, 5-, 8-, 11-, 12-, and 15-HETEs, reduced production of 5-HETE and LTB4 in 12-MTA treated cells was observed. […] The inhibitory activity of 12-MTA on production of 5-HETE and LTB4 was concentration-dependent. This study further confirmed that 12-MTA is a 5-lipoxygenase inhibitor. 12-MTA, at 100 μg/mL, inhibited production of 12-HETE by 25% […].

12-lipoxygenase = test: Inhibition of 12-HETE production in RBL-1 cells (LC/MS/MS); assay type: cell-based, rat; conditions: 100 μg/mL
Protocol: as §2

PPAR-γ [5] = test: PPAR-γ expression by immunoblot, DU145; assay type: cell-based, human; conditions: DU145 cells, 24.2 μg/ml, serum-free media, 24 hours; preliminary data
Protocol: (§3) Peroxisome proliferator-activated receptors (PPAR) represent a family of steroid hormone receptors in a superfamily mainly involved with lipid metabolism. Recently, high levels of PPAR-γ were reportedly expressed in prostate cancer tumor and activation of PPAR-γ was associated with nonapoptotic cell death induced by some PPAR-γ ligands. […] We have examined the effects of 12-MTA on activation of PPAR-γ in DU145 and PC3 cells. Cells were treated with 24.2 μg/ml of 12-MTA in serum-free media. After 24 hours, cells were harvested and expression of PPAR-γ was detected by immunoblot with or without blocking peptide.

PPAR-γ [6] = test: PPAR-γ expression by immunoblot, PC3; assay type: cell-based, human; conditions: PC3 cells, 24.2 μg/ml, serum-free media, 24 hours; preliminary data
Protocol: as §3

5-lipoxygenase [7] = biological target: T2, 5-lipoxygenase (Homo sapiens, UniProt P09917); test: Activity based fractionation, 5-HETE inhibition (UV 235 nm); assay type: biochemical; conditions: preparative TLC spot at 1:100 dilution
T2 sequence (P09917 1-674): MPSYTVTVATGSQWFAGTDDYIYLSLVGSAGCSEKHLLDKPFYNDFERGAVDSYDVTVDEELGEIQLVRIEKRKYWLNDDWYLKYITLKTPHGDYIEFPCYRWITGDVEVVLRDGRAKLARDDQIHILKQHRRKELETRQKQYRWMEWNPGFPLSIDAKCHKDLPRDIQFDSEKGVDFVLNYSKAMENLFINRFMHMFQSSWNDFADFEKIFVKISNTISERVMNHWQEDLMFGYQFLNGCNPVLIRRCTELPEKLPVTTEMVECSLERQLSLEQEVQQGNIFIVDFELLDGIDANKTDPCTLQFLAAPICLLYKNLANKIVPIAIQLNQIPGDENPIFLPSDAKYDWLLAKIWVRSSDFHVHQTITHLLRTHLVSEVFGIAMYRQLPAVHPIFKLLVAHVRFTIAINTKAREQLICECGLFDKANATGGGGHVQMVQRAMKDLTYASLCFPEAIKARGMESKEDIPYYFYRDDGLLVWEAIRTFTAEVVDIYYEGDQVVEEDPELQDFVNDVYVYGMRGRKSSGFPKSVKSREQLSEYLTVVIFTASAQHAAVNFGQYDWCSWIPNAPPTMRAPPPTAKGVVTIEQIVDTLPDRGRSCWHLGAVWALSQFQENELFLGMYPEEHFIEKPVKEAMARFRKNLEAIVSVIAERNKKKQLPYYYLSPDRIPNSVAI
From the text: The method of isolation was by ‘activity based fractionation’ using 5- and 12-lipoxygenase inhibition as the guiding assay. Using chromatography, preparative HPLC and preparative TLC of the sea cucumber oil, and checking 5-HETE with detection with UV at 235 nm, one particular spot on the TLC inhibited 5-HETE by approximately 94% at a 1:100 dilution. (FIGS. 3 and 4) The effect of 12-MTA on 5-HETE inhibition was also concentration dependent. The identity of the particular inhibitory ‘spot’ from preparative TLC was later identified by GC/MS, MS and NMR analysis and was confirmed to be 12-methyltetradecanoic acid (12-MTA).

**Q.** `CCC(C)CCCCCCCCCCC(=O)O` (stereo not drawn) [12-MTA, 12-methyltetradecanoic acid] was tested. Which IC50 (H1299 cells) did it give?
**A.** 18.1 µg/mL (≈ 74.9 µM)

**Q.** What about the IC50 (HL60 cells) of the same compound?
**A.** 20.6 µg/mL (≈ 84.9 µM)

**Q.** What about the IC50 (A549 cells) of the same compound?
**A.** 21.8 µg/mL (≈ 89.9 µM)

**Q.** What about the IC50 (PC3 cells [1]) of the same compound?
**A.** 30.1 µg/mL (≈ 124 µM)

**Q.** And the IC50 (DU145 cells)?
**A.** 30.2 µg/mL (≈ 125 µM)

**Q.** What about the IC50 (K562 cells) of the same compound?
**A.** 33.1 µg/mL (≈ 137 µM)

**Q.** And the “Morphological (apoptotic) changes by SEM” value [2]?
**A.** cells exhibited apoptotic changes after 1-hour of exposure

**Q.** And the “percent of apoptotic cells (fragmented DNA)” value (PC3 cells [3])?
**A.** 75%

**Q.** And the PARP cleavage (caspase 3 in PC3 cells)?
**A.** prominent PARP cleavage

**Q.** What about the “caspase 3 activation” value (caspase 3 in PC3 cells) of the same compound?
**A.** can activate caspase 3

**Q.** And the IC50 (5-lipoxygenase [4])?
**A.** ~103 µM

**Q.** And the “inhibition of production of 12-HETE” value (12-lipoxygenase)?
**A.** 25%

**Q.** What about the “expression of PPAR-γ” value (PPAR-γ [5]) of the same compound?
**A.** only slightly increased

**Q.** And the “expression of PPAR-γ” value (PPAR-γ [6])?
**A.** only slightly increased

**Q.** And the “inhibition of 5-HETE” value (5-lipoxygenase [7])?
**A.** approximately 94%
